Source: ChEMBL document CHEMBL1145321, “Evaluation of indenoisoquinoline topoisomerase I inhibitors using a hollow fiber assay” (2006)

tested on: Panel NCI-60 (60 carcinoma cell lines); experiment: Antiproliferative activity against human NCI60 cell line measured as mean graph midpoint; assay type: functional

Structure (SMILES) | Activity [µM]
COc1cc2c3c(n(C)c(=O)c2cc1OC)-c1cc2c(cc1C3=O)OCO2 | 20
[N-]=[N+]=NCCCn1c2c(c3ccc([N+](=O)[O-])cc3c1=O)C(=O)c1cc3c(cc1-2)OCO3 | 0.098
COc1cc2c3c(n(CCCNCCN)c(=O)c2cc1OC)-c1cc2c(cc1C3=O)OCO2.Cl.Cl | 0.347
Cl.NCCCCn1c2c(c3ccccc3c1=O)C(=O)c1ccccc1-2 | 0.156
COc1cc2c(cc1OC)[C@H]1C(=O)c3cc4c(cc3[C@H]1N(Cc1ccccc1)C2=O)OCO4 | 1.18
COc1cc2c3c(n(CCN)c(=O)c2cc1OC)-c1cc2c(cc1C3=O)OCO2.Cl | 0.338
O=C1c2cc3c(cc2-c2c1c1ccccc1c(=O)n2CCCNCCCO)OCO3 | 15.5
CC[C@]1(O)C[C@@H]2CN(CCc3c([nH]c4ccccc34)[C@@](C(=O)OC)(c3cc4c(cc3OC)N(C)[C@H]3[C@@](O)(C(=O)OC)[C@H](OC(C)=O)[C@]5(CC)C=CCN6CC[C@]43[C@@H]65)C2)C1.O=S(=O)(O)O [VINBLASTINE SULFATE] | 0.025
Cl.O=C1c2ccccc2-c2c1c1ccccc1c(=O)n2CCCNCCCn1ccnc1 | 1.01
CC[C@@]1(O)C(=O)OCc2c1cc1n(c2=O)Cc2cc3ccccc3nc2-1 [CAMPTOTHECIN] | 0.0405
COc1cc2c3c(n(CCCCO)c(=O)c2cc1OC)-c1cc2c(cc1C3=O)OCO2 | 3.2
COc1cc2c3c(n(CCCNCCNCCN)c(=O)c2cc1OC)-c1cc2c(cc1C3=O)OCO2.Cl | 2.4
Cl.NCCCn1c2c(c3ccccc3c1=O)C(=O)c1cc3c(cc1-2)OCO3 | 0.251
COc1cc2c(cc1OC)[C@H]1C(=O)c3cc4c(cc3[C@H]1N(CCCBr)C2=O)OCO4 | 0.69
COc1cc2c3c(n(CCCN)c(=O)c2cc1OC)-c1cc2c(cc1C3=O)OCO2.Cl | 0.16
COc1cc2c(cc1[N+](=O)[O-])C(=O)N(CCCBr)[C@@H]1c3cc4c(cc3C(=O)[C@H]21)OCO4 | 0.016
COc1cc2c3c(n(C)c(=O)c2cc1OC)-c1cc2c(cc1/C3=C/CCCI)OCO2 | 8.49
CCCCn1c2c(c3cc(OC)c(OC)cc3c1=O)C(=O)c1cc3c(cc1-2)OCO3 | 41.6
CC(=O)O[C@H]1C(=O)[C@@]2(C)[C@H]([C@H](OC(=O)c3ccccc3)[C@]3(O)C[C@H](OC(=O)[C@H](O)[C@@H](NC(=O)c4ccccc4)c4ccccc4)C(C)=C1C3(C)C)[C@]1(OC(C)=O)CO[C@@H]1C[C@@H]2O [PACLITAXEL] | 0.0253
COc1cc2c3c(n(Cc4ccccc4)c(=O)c2cc1OC)-c1cc2c(cc1C3=O)OCO2 | 41.6
Cl.NCCCn1c2c(c3ccc([N+](=O)[O-])cc3c1=O)C(=O)c1ccccc1-2 | 0.146
Cl.c1c2c(cc3c1OCO3)-c1ncc3cc4c(cc3c1C2)OCO4 | 0.271
Cn1c2c(c3ccccc3c1=O)C(=O)c1cc3c(cc1-2)OCO3 | 45
O=C1c2ccccc2-c2c1c1ccccc1c(=O)n2CCCCCO | 14.4
Cl.NCCCn1c2c(c3ccccc3c1=O)C(=O)c1ccccc1-2 | 0.315
